Test results from patent US20220378706A1, “PHARMACEUTICAL COMPOSITION COMPRISING PDE9 INHIBITOR” (Eisai R&D Management Co., Ltd., priority 2017, published 2022).
Read-outs that look alike come from different tables or passages of the source.

Test: Multiple ascending dose study: plasma pharmacokinetics
Assay type: in vivo
Conditions: human, po; for Tmax: read-out: tmax Median
Experimental: Four sequential cohorts of healthy participants (≥50 years and ≤85 years old) were treated with multiple ascending doses of Compound A up to the maximum tolerated dose (MTD). A total of 6 participants per cohort were randomized to Compound A. Proposed doses of Compound A were:
Participants received Compound A capsules, orally once daily (QD) on Days 1 to 14 after an overnight fast of at least 10 hours. Compound A was administered orally with 240 milliliter (mL) (8 fluid ounces) of water.
1) Maximum drug concentration (Cmax) [Time Frame: Day 1 and Day 14]
Blood samples were collected on Day 1 at predose and postdose 0.5 (30 minutes), 1, 1.5, 2, 3, 4, 5, 6, 8, 12, and 18 hours; Day 14 (at predose and postdose 0.5, 1, 1.5, 2, 3, 4, 5, 6, 8, 12, and 18 hours); and Day 15 (24 hours postdose from Day 14).
2) Mean time to reach maximum (peak) drug concentration (tmax) [Time Frame: Day 1 and Day 14]
4) Mean area under the concentration-time curve from zero time extrapolated to infinity (AUC(0-inf)) [Time Frame: Day 14]

COc1ncc(C)c(-c2ccc3c(c2)[nH]c(=O)c2cnn([C@H]4CCOC4)c23)c1C [Compound A, (S)-7-(2-methoxy-3,5-dimethylpyridin-4-yl)-1-(tetrahydrofuran-3-yl)-1H-pyrazolo[4,3-c]quin olin-4(5H)-one]
AUC(0-t) (5 mg, Day 1, 5 mg QD oral, read-out: AUC(0-24 h) GM (% CV)): 0.344 µg·h/mL | AUC(0-t) (5 mg, Day 1, 5 mg QD oral, read-out: AUC(0-24 h) Mean (SD)): 0.352 µg·h/mL | AUC(0-t) (5 mg, Day 1, 5 mg QD oral, read-out: AUC(0-24 h) Median): 0.34 µg·h/mL | Cmax (5 mg, Day 1, 5 mg QD oral, read-out: Cmax GM (% CV)): 0.0263 µg/mL | Cmax (5 mg, Day 1, 5 mg QD oral, read-out: Cmax Mean (SD)): 0.0274 µg/mL | Cmax (5 mg, Day 1, 5 mg QD oral, read-out: Cmax Median): 0.0266 µg/mL | Tmax (5 mg, Day 1, 5 mg QD oral): 4 h | AUC(0-t) (5 mg, Day 14, 5 mg QD oral, read-out: AUC(0-24 h) GM (% CV)): 0.844 µg·h/mL | AUC(0-t) (5 mg, Day 14, 5 mg QD oral, read-out: AUC(0-24 h) Mean (SD)): 0.864 µg·h/mL | AUC(0-t) (5 mg, Day 14, 5 mg QD oral, read-out: AUC(0-24 h) Median): 0.773 µg·h/mL | AUC(0-inf) (5 mg, Day 14, 5 mg QD oral, read-out: AUC(0-inf) GM (% CV)): 2.38 µg·h/mL | AUC(0-inf) (5 mg, Day 14, 5 mg QD oral, read-out: AUC(0-inf) Mean (SD)): 2.48 µg·h/mL | AUC(0-inf) (5 mg, Day 14, 5 mg QD oral, read-out: AUC(0-inf) Median): 2.51 µg·h/mL | Cmax (5 mg, Day 14, 5 mg QD oral, read-out: Cmax GM (% CV)): 0.0586 µg/mL | Cmax (5 mg, Day 14, 5 mg QD oral, read-out: Cmax Mean (SD)): 0.0617 µg/mL | Cmax (5 mg, Day 14, 5 mg QD oral, read-out: Cmax Median): 0.0494 µg/mL | Tmax (5 mg, Day 14, 5 mg QD oral): 4 h | AUC(0-t) (10 mg, Day 1, 10 mg QD oral, read-out: AUC(0-24 h) GM (% CV)): 0.781 µg·h/mL | AUC(0-t) (10 mg, Day 1, 10 mg QD oral, read-out: AUC(0-24 h) Mean (SD)): 0.784 µg·h/mL | AUC(0-t) (10 mg, Day 1, 10 mg QD oral, read-out: AUC(0-24 h) Median): 0.735 µg·h/mL | Cmax (10 mg, Day 1, 10 mg QD oral, read-out: Cmax GM (% CV)): 0.0655 µg/mL | Cmax (10 mg, Day 1, 10 mg QD oral, read-out: Cmax Mean (SD)): 0.0662 µg/mL | Cmax (10 mg, Day 1, 10 mg QD oral, read-out: Cmax Median): 0.0658 µg/mL | Tmax (10 mg, Day 1, 10 mg QD oral): 2 h | AUC(0-t) (10 mg, Day 14, 10 mg QD oral, read-out: AUC(0-24 h) GM (% CV)): 1.9 µg·h/mL | AUC(0-t) (10 mg, Day 14, 10 mg QD oral, read-out: AUC(0-24 h) Mean (SD)): 1.94 µg·h/mL | AUC(0-t) (10 mg, Day 14, 10 mg QD oral, read-out: AUC(0-24 h) Median): 1.98 µg·h/mL | AUC(0-inf) (10 mg, Day 14, 10 mg QD oral, read-out: AUC(0-inf) GM (% CV)): 5.1 µg·h/mL | AUC(0-inf) (10 mg, Day 14, 10 mg QD oral, read-out: AUC(0-inf) Mean (SD)): 5.26 µg·h/mL | AUC(0-inf) (10 mg, Day 14, 10 mg QD oral, read-out: AUC(0-inf) Median): 5.36 µg·h/mL | Cmax (10 mg, Day 14, 10 mg QD oral, read-out: Cmax GM (% CV)): 0.135 µg/mL | Cmax (10 mg, Day 14, 10 mg QD oral, read-out: Cmax Mean (SD)): 0.137 µg/mL | Cmax (10 mg, Day 14, 10 mg QD oral, read-out: Cmax Median): 0.144 µg/mL | Tmax (10 mg, Day 14, 10 mg QD oral): 1.5 h | AUC(0-t) (25 mg, Day 1, 25 mg QD oral, read-out: AUC(0-24 h) GM (% CV)): 1.65 µg·h/mL | AUC(0-t) (25 mg, Day 1, 25 mg QD oral, read-out: AUC(0-24 h) Mean (SD)): 1.67 µg·h/mL | AUC(0-t) (25 mg, Day 1, 25 mg QD oral, read-out: AUC(0-24 h) Median): 1.7 µg·h/mL | Cmax (25 mg, Day 1, 25 mg QD oral, read-out: Cmax GM (% CV)): 0.125 µg/mL | Cmax (25 mg, Day 1, 25 mg QD oral, read-out: Cmax Mean (SD)): 0.129 µg/mL | Cmax (25 mg, Day 1, 25 mg QD oral, read-out: Cmax Median): 0.136 µg/mL | Tmax (25 mg, Day 1, 25 mg QD oral): 3.01 h | AUC(0-t) (25 mg, Day 14, 25 mg QD oral, read-out: AUC(0-24 h) GM (% CV)): 5.14 µg·h/mL | AUC(0-t) (25 mg, Day 14, 25 mg QD oral, read-out: AUC(0-24 h) Mean (SD)): 5.21 µg·h/mL | AUC(0-t) (25 mg, Day 14, 25 mg QD oral, read-out: AUC(0-24 h) Median): 4.76 µg·h/mL | AUC(0-inf) (25 mg, Day 14, 25 mg QD oral, read-out: AUC(0-inf) GM (% CV)): 15.4 µg·h/mL | AUC(0-inf) (25 mg, Day 14, 25 mg QD oral, read-out: AUC(0-inf) Mean (SD)): 16.2 µg·h/mL | AUC(0-inf) (25 mg, Day 14, 25 mg QD oral, read-out: AUC(0-inf) Median): 14 µg·h/mL | Cmax (25 mg, Day 14, 25 mg QD oral, read-out: Cmax GM (% CV)): 0.332 µg/mL | Cmax (25 mg, Day 14, 25 mg QD oral, read-out: Cmax Mean (SD)): 0.336 µg/mL | Cmax (25 mg, Day 14, 25 mg QD oral, read-out: Cmax Median): 0.318 µg/mL | Tmax (25 mg, Day 14, 25 mg QD oral): 3 h | AUC(0-t) (50 mg, Day 1, 50 mg QD oral, read-out: AUC(0-24 h) GM (% CV)): 2.97 µg·h/mL | AUC(0-t) (50 mg, Day 1, 50 mg QD oral, read-out: AUC(0-24 h) Mean (SD)): 3.11 µg·h/mL | AUC(0-t) (50 mg, Day 1, 50 mg QD oral, read-out: AUC(0-24 h) Median): 3.06 µg·h/mL | Cmax (50 mg, Day 1, 50 mg QD oral, read-out: Cmax GM (% CV)): 0.214 µg/mL | Cmax (50 mg, Day 1, 50 mg QD oral, read-out: Cmax Mean (SD)): 0.237 µg/mL | Cmax (50 mg, Day 1, 50 mg QD oral, read-out: Cmax Median): 0.226 µg/mL | Tmax (50 mg, Day 1, 50 mg QD oral): 3.53 h | AUC(0-t) (50 mg, Day 14, 50 mg QD oral, read-out: AUC(0-24 h) GM (% CV)): 11.5 µg·h/mL | AUC(0-t) (50 mg, Day 14, 50 mg QD oral, read-out: AUC(0-24 h) Mean (SD)): 11.8 µg·h/mL | AUC(0-t) (50 mg, Day 14, 50 mg QD oral, read-out: AUC(0-24 h) Median): 10.9 µg·h/mL | AUC(0-inf) (50 mg, Day 14, 50 mg QD oral, read-out: AUC(0-inf) GM (% CV)): 38.6 µg·h/mL | AUC(0-inf) (50 mg, Day 14, 50 mg QD oral, read-out: AUC(0-inf) Mean (SD)): 40.7 µg·h/mL | AUC(0-inf) (50 mg, Day 14, 50 mg QD oral, read-out: AUC(0-inf) Median): 38.1 µg·h/mL | Cmax (50 mg, Day 14, 50 mg QD oral, read-out: Cmax GM (% CV)): 0.778 µg/mL | Cmax (50 mg, Day 14, 50 mg QD oral, read-out: Cmax Mean (SD)): 0.788 µg/mL | Cmax (50 mg, Day 14, 50 mg QD oral, read-out: Cmax Median): 0.807 µg/mL | Tmax (50 mg, Day 14, 50 mg QD oral): 1.5 h | AUC(0-t) (50 mg, Part C, 50 mg oral, read-out: AUC (0-24 h) GM (% CV)): 10.5 µg·h/mL | AUC(0-t) (50 mg, Part C, 50 mg oral, read-out: AUC (0-24 h) Mean (SD)): 10.8 µg·h/mL | AUC(0-t) (50 mg, Part C, 50 mg oral, read-out: AUC (0-24 h) Median): 10.6 µg·h/mL | Cmax (50 mg, Part C, 50 mg oral, read-out: Cmax GM (% CV)): 0.594 µg/mL
